# Results reported in US9498442B2 (ALFA WASSERMANN S.P.A., priority 2010, dated 2016).
# Where two headings read alike, the source gives them in different places.
# Assays:
# [1] = Stability of rifaximin powder obtained by spray drying on storage; assay type: physicochemical; settings: for Description / Total impurities / Water content (Karl Fisher) / X-Ray diffraction spectrum: 40° C. ± 2° C., RH 75 ± 5%; for X-Ray diffraction spectrum: complies with an amorphous form of Rifaximin
# [2] = Particle size dimension (PSD), Beckman-Coulter LS100 Q; assay type: physicochemical; settings: solvent White Spirit
# Description: The particle size analysis were performed using Beckman—Coulter LS100 Q particle size analyzer equipped with a micro-volume cell. The solvent used is White Spirit (WS). In Table 4 are reported the average size of the particles obtained with spray drying and milling processes.
# Bulk density = assay type: physicochemical; settings: 10 ml volumetric flask, three samples
# [3] = Solubility over time of rifaximin preparations in phosphate buffer pH 6.8; assay type: physicochemical
# Description: Samples taken at 5-minute intervals during the first hour and at 15-minute intervals in the remaining time, are analysed in HPLC after filtration.
# [4] = PK study on dogs of rifaximin prepared by spray drying; assay type: in vivo, dog (beagle); settings: blood
# Description: Capsules of hard gelatin containing only rifaximin were administered, and the pre- and post-dose observations, the body weight and the physical examination were evaluated.
# Blood samples were collected from all animals on each day of dosing at: 0 (pre-dose), 1, 2, 4, 6, 8 and 24 hours after each dosing.
# [5] = Rifaximin solubility at different pH, shake flask method; assay type: physicochemical; settings: for solubility: thermodynamic from solid, shake flask, 20° C.
# Description: The study was conducted in accordance with accepted principles in order to meet the requirements of the Annex to European Commission Directive 92/69/EEC and the OECD Guidelines for Testing of Chemicals (EEC Method A6, OECD Method 105). […] Aliquots of the saturated solutions of rifaximin-α were adequately diluted, then analyzed by a high performance liquid chromatography (HPLC) method.
# [6] = test system: enterotoxogenic Escherichia coli isolates; settings: cited from earlier work
# [7] = test system: enteric bacteria pathogens; settings: cited from earlier work
structure (smiles),measurement,setting,value
"CO[C@H]1/C=C/O[C@@]2(C)Oc3c(C)c(O)c4c(O)c(c5c(nc6cc(C)ccn65)c4c3C2=O)NC(=O)/C(C)=C\C=C\[C@H](C)[C@H](O)[C@@H](C)[C@@H](O)[C@@H](C)[C@H](OC(C)=O)[C@@H]1C [Example 1, rifaximin]",Description,[1]; 1 month,Red-orange
same,Total impurities,[1]; 1 month,0.54%
same,Water content (Karl Fisher),[1]; 1 month,4.9%
same,X-Ray diffraction spectrum,[1]; 1 month,Complies with
same,Description,[1]; 3 months,Red-orange
same,Total impurities,[1]; 3 months,0.95%
same,Water content (Karl Fisher),[1]; 3 months,5.4%
same,X-Ray diffraction spectrum,[1]; 3 months,Complies with
same,stability of the obtained rifaximin powder,"[1]; 40° C.+2, relative humidity 75%, up to three months",stable
same,Description,"[1]; T0, acceptance Red-orange powder",Red-orange
same,Total impurities,"[1]; T0, acceptance ≦2.0%",0.51%
same,Water content (Karl Fisher),"[1]; T0, acceptance ≦8%",2.2%
same,X-Ray diffraction spectrum,[1]; T0,Complies with
same,stability of rifaximin in powder form,"[1]; after three months, 30° C. to 40° C., humidity degree higher than 50%",stable
same,Diameter Particle d10,[2]; listed as Spray Drying Process,4.56 μm
same,Diameter Particle d50,[2]; listed as Spray Drying Process,19.60 μm
same,Diameter Particle d90,[2]; listed as Spray Drying Process,62.21 μm
same,bulk density,Bulk density; listed as rifaximin by spay drying,0.257 g/mL
same,"Solubility over time, Concentration","[3]; 10 min, phosphate buffer pH 6.8, 30±0.5° C., listed as Spray drying",30.2 µg/mL
same,"Solubility over time, Concentration","[3]; 15 min, phosphate buffer pH 6.8, 30±0.5° C., listed as Spray drying",44.0 µg/mL
same,"Solubility over time, Concentration","[3]; 20 min, phosphate buffer pH 6.8, 30±0.5° C., listed as Spray drying",47.0 µg/mL
same,"Solubility over time, Concentration","[3]; 25 min, phosphate buffer pH 6.8, 30±0.5° C., listed as Spray drying",38.0 µg/mL
same,"Solubility over time, Concentration","[3]; 60 min, phosphate buffer pH 6.8, 30±0.5° C., listed as Spray drying",11.0 µg/mL
same,"Solubility over time, Concentration","[3]; 75 min, phosphate buffer pH 6.8, 30±0.5° C., listed as Spray drying",9.9 µg/mL
same,"Solubility over time, Concentration","[3]; 90 min, phosphate buffer pH 6.8, 30±0.5° C., listed as Spray drying",9.5 µg/mL
same,"Solubility over time, Concentration","[3]; 105 min, phosphate buffer pH 6.8, 30±0.5° C., listed as Spray drying",9.3 µg/mL
same,"Solubility over time, Concentration","[3]; 120 min, phosphate buffer pH 6.8, 30±0.5° C., listed as Spray drying",9.1 µg/mL
same,"Solubility over time, Concentration","[3]; 135 min, phosphate buffer pH 6.8, 30±0.5° C., listed as Spray drying",9.0 µg/mL
same,"Solubility over time, Concentration","[3]; 150 min, phosphate buffer pH 6.8, 30±0.5° C., listed as Spray drying",8.8 µg/mL
same,solubility at 5 min,"[3]; phosphate buffer, 30 °C, pH 6.8, aqueous buffer, thermodynamic from solid, 5 min, 500 mg in 750 ml phosphate buffer pH 6.8, 30±0.5° C., 250 rpm, read-out: Solubility over time, Concentration",14.4 µg/mL
same,solubility at 30 min,"[3]; phosphate buffer, 30 °C, pH 6.8, aqueous buffer, thermodynamic from solid, 30 min, phosphate buffer pH 6.8, 30±0.5° C., read-out: Solubility over time, Concentration",28.7 µg/mL
same,solubility at 35 min,"[3]; phosphate buffer, 30 °C, pH 6.8, aqueous buffer, thermodynamic from solid, 35 min, phosphate buffer pH 6.8, 30±0.5° C., read-out: Solubility over time, Concentration",22.4 µg/mL
same,solubility at 40 min,"[3]; phosphate buffer, 30 °C, pH 6.8, aqueous buffer, thermodynamic from solid, 40 min, phosphate buffer pH 6.8, 30±0.5° C., read-out: Solubility over time, Concentration",17.7 µg/mL
same,solubility at 45 min,"[3]; phosphate buffer, 30 °C, pH 6.8, aqueous buffer, thermodynamic from solid, 45 min, phosphate buffer pH 6.8, 30±0.5° C., read-out: Solubility over time, Concentration",14.9 µg/mL
same,solubility at 50 min,"[3]; phosphate buffer, 30 °C, pH 6.8, aqueous buffer, thermodynamic from solid, 50 min, phosphate buffer pH 6.8, 30±0.5° C., read-out: Solubility over time, Concentration",13.1 µg/mL
same,solubility at 55 min,"[3]; phosphate buffer, 30 °C, pH 6.8, aqueous buffer, thermodynamic from solid, 55 min, phosphate buffer pH 6.8, 30±0.5° C., read-out: Solubility over time, Concentration",11.8 µg/mL
same,Tmax,"[4]; female, beagle, dog, po, 100 mg/kg",2 h
same,AUC(0-t),"[4]; female, beagle, dog, po, 100 mg/kg, read-out: AUC0-24 h, mean (±standard error)",2850 ± 1490 ng·h/mL
same,Cmax,"[4]; female, beagle, dog, po, 100 mg/kg, read-out: Cmax, mean (±standard error)",1040 ± 588 ng/mL
same,AUC(0-t),"[4]; human (calculated), oral, 2.9 mg/kg, calculated from dog values (100 mg/kg, HED 54.4 mg/kg), mean ± standard error, read-out: AUC0-24 h, values calculated in humans proportionally reduced to the dosage 2.9 mg/kg",143 ± 80.1 ng·h/mL
same,Cmax,"[4]; human (calculated), oral, 2.9 mg/kg, calculated from dog values (100 mg/kg, HED 54.4 mg/kg), mean ± standard error, read-out: Cmax, values calculated in humans proportionally reduced to the dosage 2.9 mg/kg",56.1 ± 31.6 ng/mL
"CO[C@H]1/C=C/O[C@@]2(C)Oc3c(C)c(O)c4c(O)c(c5c(nc6cc(C)ccn65)c4c3C2=O)NC(=O)/C(C)=C\C=C\[C@H](C)[C@H](O)[C@@H](C)[C@@H](O)[C@@H](C)[C@H](OC(C)=O)[C@@H]1C [rifaximin by milling, rifaximin, reference compound]",Diameter Particle d10,[2]; listed as Milling Process,1.84 μm
same,Diameter Particle d50,[2]; listed as Milling Process,8.17 μm
same,Diameter Particle d90,[2]; listed as Milling Process,12.92 μm
same,bulk density,Bulk density,0.327 g/mL
same,"Solubility over time, Concentration","[3]; 5 min, 500 mg in 750 ml phosphate buffer pH 6.8, 30±0.5° C., 250 rpm",10.8 µg/mL
same,"Solubility over time, Concentration","[3]; 10 min, phosphate buffer pH 6.8, 30±0.5° C.",14.3 µg/mL
same,"Solubility over time, Concentration","[3]; 15 min, phosphate buffer pH 6.8, 30±0.5° C.",15.9 µg/mL
same,"Solubility over time, Concentration","[3]; 20 min, phosphate buffer pH 6.8, 30±0.5° C.",16.7 µg/mL
same,"Solubility over time, Concentration","[3]; 25 min, phosphate buffer pH 6.8, 30±0.5° C.",16.9 µg/mL
same,"Solubility over time, Concentration","[3]; 30 min, phosphate buffer pH 6.8, 30±0.5° C.",16.7 µg/mL
same,"Solubility over time, Concentration","[3]; 35 min, phosphate buffer pH 6.8, 30±0.5° C.",16.1 µg/mL
same,"Solubility over time, Concentration","[3]; 40 min, phosphate buffer pH 6.8, 30±0.5° C.",15.4 µg/mL
same,"Solubility over time, Concentration","[3]; 45 min, phosphate buffer pH 6.8, 30±0.5° C.",14.8 µg/mL
same,"Solubility over time, Concentration","[3]; 50 min, phosphate buffer pH 6.8, 30±0.5° C.",14.0 µg/mL
same,"Solubility over time, Concentration","[3]; 55 min, phosphate buffer pH 6.8, 30±0.5° C.",13.5 µg/mL
same,"Solubility over time, Concentration","[3]; 90 min, phosphate buffer pH 6.8, 30±0.5° C.",10.9 µg/mL
same,"Solubility over time, Concentration","[3]; 105 min, phosphate buffer pH 6.8, 30±0.5° C.",9.8 µg/mL
same,"Solubility over time, Concentration","[3]; 120 min, phosphate buffer pH 6.8, 30±0.5° C.",9.0 µg/mL
same,"Solubility over time, Concentration","[3]; 135 min, phosphate buffer pH 6.8, 30±0.5° C.",8.3 µg/mL
same,"Solubility over time, Concentration","[3]; 150 min, phosphate buffer pH 6.8, 30±0.5° C.",7.9 µg/mL
same,solubility at 60 min,"[3]; phosphate buffer, 30 °C, pH 6.8, aqueous buffer, thermodynamic from solid, 60 min, phosphate buffer pH 6.8, 30±0.5° C., read-out: Solubility over time, Concentration",12.9 µg/mL
same,solubility at 75 min,"[3]; phosphate buffer, 30 °C, pH 6.8, aqueous buffer, thermodynamic from solid, 75 min, phosphate buffer pH 6.8, 30±0.5° C., read-out: Solubility over time, Concentration",12.1 µg/mL
"CO[C@H]1/C=C/O[C@@]2(C)Oc3c(C)c(O)c4c(O)c(c5c(nc6cc(C)ccn65)c4c3C2=O)NC(=O)/C(C)=C\C=C\[C@H](C)[C@H](O)[C@@H](C)[C@@H](O)[C@@H](C)[C@H](OC(C)=O)[C@@H]1C [rifaximin, (2S,16Z,18E,20S,21S,22R,23R,24R,25S,26S,27S,28E)-5,6,21,23,25 pentahydroxy-27-methoxy-2,4,11,16,20,22,24,26-octamethyl-2,7-(epoxypentadeca-(1,11,13)trienimino) benzofuro (4,5-e) pyrido(1,2,-a) benzimi-dazole-1,15(2H)-dione,25-acetate]",effect of pH variation on solubility,[5]; pH variation between 5 and 7,does not affect the solubility
same,virulence of the pathogens,[6]; contact maintained only for 8 hours,not abolished
same,concentration effective in the alteration of the virulence,[6]; continuous contact for at least 24 hours,8 fold lower than MIC
same,sub-inhibitory concentration at which alteration of virulence factor occurs,[7],32 folds lower than the MIC values
"CO[C@H]1/C=C/O[C@@]2(C)Oc3c(C)c(O)c4c(O)c(c5c(nc6cc(C)ccn65)c4c3C2=O)NC(=O)/C(C)=C\C=C\[C@H](C)[C@H](O)[C@@H](C)[C@@H](O)[C@@H](C)[C@H](OC(C)=O)[C@@H]1C [rifaximin-α, rifaximin]",solubility,"[5]; aqueous buffer, pH 4 buffer solution",4.12 µg/mL
same,solubility,"[5]; aqueous buffer, pH 7 buffer solution",3.22 µg/mL
same,solubility,"[5]; aqueous buffer, pH 10 buffer solution",299 µg/mL
same,solubility,"[5]; Purified water, saturated solutions of rifaximin-α",3.63 µg/mL
